Experimental data from ChEMBL document CHEMBL4507301 (2021).

Experiments:
[1] = target: Alpha-1D adrenergic receptor (Homo sapiens) (UniProt P25100); conditions: Compound concentration 10.0 uM
[2] = target: Serine/threonine-protein kinase PAK 1 (Homo sapiens) (UniProt Q13153); conditions: Compound concentration 1000.0 nM
[3] = target: Cyclin-dependent kinase 8 (Homo sapiens) (UniProt P49336); conditions: Compound concentration 1000.0 nM
[4] = target: Vascular endothelial growth factor receptor 1 (Homo sapiens) (UniProt P17948); conditions: Compound concentration 1000.0 nM
[5] = system: Receptor-type tyrosine-protein kinase FLT3 (Homo sapiens), P36888 [UNDEFINED MUTATION]; conditions: Compound concentration 1000.0 nM
[6] = target: Ephrin type-A receptor 2 (Homo sapiens) (UniProt P29317); conditions: Compound concentration 1000.0 nM
[7] = target: Serine/threonine-protein kinase MARK1 (Homo sapiens) (UniProt Q9P0L2); conditions: Compound concentration 1000.0 nM
[8] = target: 5-hydroxytryptamine receptor 6 (Homo sapiens) (UniProt P50406); conditions: Compound concentration 10.0 uM
[9] = target: Sigma intracellular receptor 2 (Homo sapiens) (UniProt Q5BJF2); conditions: Compound concentration 10.0 uM
Chain of Sigma intracellular receptor 2 (Homo sapiens) (Q5BJF2 whole entry): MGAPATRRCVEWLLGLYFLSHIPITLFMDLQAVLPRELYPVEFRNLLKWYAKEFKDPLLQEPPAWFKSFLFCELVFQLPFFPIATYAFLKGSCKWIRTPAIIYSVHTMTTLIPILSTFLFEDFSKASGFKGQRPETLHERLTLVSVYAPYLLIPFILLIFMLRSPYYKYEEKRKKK

[10] = target: Delta-type opioid receptor (Homo sapiens) (UniProt P41143); conditions: Compound concentration 10.0 uM
[11] = system: ALK tyrosine kinase receptor (Homo sapiens), Q9UM73 [L1196M]; conditions: Compound concentration 1000.0 nM
[12] = system: Epidermal growth factor receptor (Homo sapiens), P00533 [UNDEFINED MUTATION]; conditions: Compound concentration 1000.0 nM
[13] = target: Homeodomain-interacting protein kinase 1 (Homo sapiens) (UniProt Q86Z02); conditions: Compound concentration 1000.0 nM
[14] = target: RAC-alpha serine/threonine-protein kinase (Homo sapiens) (UniProt P31749); conditions: Compound concentration 1000.0 nM
Chain of RAC-alpha serine/threonine-protein kinase (Homo sapiens) (P31749 whole entry): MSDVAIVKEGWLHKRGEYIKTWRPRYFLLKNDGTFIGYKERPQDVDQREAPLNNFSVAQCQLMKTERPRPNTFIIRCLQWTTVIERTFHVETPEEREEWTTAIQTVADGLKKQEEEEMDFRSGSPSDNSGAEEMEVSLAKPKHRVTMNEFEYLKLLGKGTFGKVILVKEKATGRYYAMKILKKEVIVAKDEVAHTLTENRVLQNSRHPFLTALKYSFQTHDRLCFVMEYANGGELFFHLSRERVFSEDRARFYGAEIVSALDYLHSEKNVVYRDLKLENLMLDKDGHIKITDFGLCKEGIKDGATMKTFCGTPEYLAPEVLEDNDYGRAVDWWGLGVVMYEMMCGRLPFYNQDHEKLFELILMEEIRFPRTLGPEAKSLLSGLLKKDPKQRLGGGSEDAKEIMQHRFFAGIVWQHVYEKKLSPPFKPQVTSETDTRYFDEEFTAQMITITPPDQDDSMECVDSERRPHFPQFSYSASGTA

[15] = target: Mitogen-activated protein kinase 13 (Homo sapiens) (UniProt O15264); conditions: Compound concentration 1000.0 nM
[16] = target: Receptor tyrosine-protein kinase erbB-2 (Homo sapiens) (UniProt P04626); conditions: Compound concentration 1000.0 nM
[17] = target: Serine/threonine-protein kinase RIO1 (Homo sapiens) (UniProt Q9BRS2); conditions: Compound concentration 1000.0 nM
[18] = system: Serine/threonine-protein kinase B-raf (Homo sapiens), P15056 [V600E]; conditions: Compound concentration 1000.0 nM
Chain of Serine/threonine-protein kinase B-raf (Homo sapiens), P15056 [V600E] (P15056 whole entry V600E): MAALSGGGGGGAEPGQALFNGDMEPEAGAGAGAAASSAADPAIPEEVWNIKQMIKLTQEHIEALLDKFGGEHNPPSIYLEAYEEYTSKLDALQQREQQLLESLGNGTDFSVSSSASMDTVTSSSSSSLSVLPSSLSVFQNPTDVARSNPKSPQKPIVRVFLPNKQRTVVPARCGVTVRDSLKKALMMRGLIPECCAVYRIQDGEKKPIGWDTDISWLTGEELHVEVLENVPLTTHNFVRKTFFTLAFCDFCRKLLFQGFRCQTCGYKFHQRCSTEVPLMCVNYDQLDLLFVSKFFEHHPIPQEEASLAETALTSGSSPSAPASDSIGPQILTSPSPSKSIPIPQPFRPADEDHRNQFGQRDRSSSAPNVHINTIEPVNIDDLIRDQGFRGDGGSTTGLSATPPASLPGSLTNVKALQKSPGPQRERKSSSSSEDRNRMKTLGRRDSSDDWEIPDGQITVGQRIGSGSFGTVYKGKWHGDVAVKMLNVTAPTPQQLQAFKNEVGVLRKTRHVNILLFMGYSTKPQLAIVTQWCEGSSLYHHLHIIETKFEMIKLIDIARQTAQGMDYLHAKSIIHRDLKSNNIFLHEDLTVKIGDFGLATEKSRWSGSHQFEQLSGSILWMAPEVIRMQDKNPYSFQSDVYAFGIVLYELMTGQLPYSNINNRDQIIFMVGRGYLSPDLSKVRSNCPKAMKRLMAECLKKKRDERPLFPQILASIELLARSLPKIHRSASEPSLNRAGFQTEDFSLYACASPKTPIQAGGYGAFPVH

[19] = target: Myosin-IIIa (Homo sapiens) (UniProt Q8NEV4); conditions: Compound concentration 1000.0 nM
[20] = target: Serine/threonine-protein kinase MAK (Homo sapiens) (UniProt P20794); conditions: Compound concentration 1000.0 nM
[21] = target: Wee1-like protein kinase (Homo sapiens) (UniProt P30291); conditions: Compound concentration 1000.0 nM
Chain of Wee1-like protein kinase (Homo sapiens) (P30291 whole entry, looked up): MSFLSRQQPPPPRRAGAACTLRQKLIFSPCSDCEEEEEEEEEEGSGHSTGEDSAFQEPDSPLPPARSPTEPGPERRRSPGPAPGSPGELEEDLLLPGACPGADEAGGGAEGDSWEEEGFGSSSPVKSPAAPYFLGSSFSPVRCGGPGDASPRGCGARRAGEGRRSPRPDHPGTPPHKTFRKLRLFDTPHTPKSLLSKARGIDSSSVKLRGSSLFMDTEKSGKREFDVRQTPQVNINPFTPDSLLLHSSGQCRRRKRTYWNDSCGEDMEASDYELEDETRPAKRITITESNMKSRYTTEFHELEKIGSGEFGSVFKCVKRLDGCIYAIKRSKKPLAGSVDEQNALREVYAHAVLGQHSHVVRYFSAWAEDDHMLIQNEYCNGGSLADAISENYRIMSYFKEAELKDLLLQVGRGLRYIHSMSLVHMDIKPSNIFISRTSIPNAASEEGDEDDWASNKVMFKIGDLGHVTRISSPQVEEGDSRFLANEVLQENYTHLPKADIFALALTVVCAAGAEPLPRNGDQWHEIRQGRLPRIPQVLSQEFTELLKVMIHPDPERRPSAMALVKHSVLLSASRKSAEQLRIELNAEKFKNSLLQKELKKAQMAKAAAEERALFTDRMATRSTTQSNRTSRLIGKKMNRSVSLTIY

[22] = target: Tyrosine-protein kinase Fer (Homo sapiens) (UniProt P16591); conditions: Compound concentration 1000.0 nM
[23] = target: Serine/threonine-protein kinase Nek10 (Homo sapiens) (UniProt Q6ZWH5); conditions: Compound concentration 1000.0 nM
[24] = target: Mitogen-activated protein kinase kinase kinase 11 (Homo sapiens) (UniProt Q16584); conditions: Compound concentration 1000.0 nM
[25] = target: Serine/threonine-protein kinase TAO1 (Homo sapiens) (UniProt Q7L7X3); conditions: Compound concentration 1000.0 nM
[26] = system: Fibroblast growth factor receptor 3 (Homo sapiens), P22607 [G697C]; conditions: Compound concentration 1000.0 nM
[27] = system: Phosphatidylinositol 4,5-bisphosphate 3-kinase catalytic subunit alpha isoform (Homo sapiens), P42336 [H1047Y]; conditions: Compound concentration 1000.0 nM
[28] = target: Ephrin type-B receptor 1 (Homo sapiens) (UniProt P54762); conditions: Compound concentration 1000.0 nM
[29] = target: Serine/threonine-protein kinase Nek4 (Homo sapiens) (UniProt P51957); conditions: Compound concentration 1000.0 nM
[30] = target: Phosphorylase b kinase regulatory subunit alpha, liver isoform (Homo sapiens) (UniProt P46019); conditions: Compound concentration 1000.0 nM
[31] = target: T1, Alpha-2A adrenergic receptor (Homo sapiens) (UniProt P08913); conditions: Compound concentration 10.0 uM
T1 sequence (whole entry): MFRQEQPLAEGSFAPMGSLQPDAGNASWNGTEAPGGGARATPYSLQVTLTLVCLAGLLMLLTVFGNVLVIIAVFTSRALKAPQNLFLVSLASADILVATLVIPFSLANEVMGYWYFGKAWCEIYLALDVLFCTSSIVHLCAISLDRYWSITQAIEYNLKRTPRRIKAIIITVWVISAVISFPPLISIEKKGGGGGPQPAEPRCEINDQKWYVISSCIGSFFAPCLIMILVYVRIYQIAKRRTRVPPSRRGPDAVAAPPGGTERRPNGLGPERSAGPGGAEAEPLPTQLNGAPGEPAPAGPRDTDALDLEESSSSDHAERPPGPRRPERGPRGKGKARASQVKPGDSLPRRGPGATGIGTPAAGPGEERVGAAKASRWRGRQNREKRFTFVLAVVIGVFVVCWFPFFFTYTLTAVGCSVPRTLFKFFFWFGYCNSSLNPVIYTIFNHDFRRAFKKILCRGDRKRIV

[32] = target: Cyclin-dependent kinase 5 (Homo sapiens) (UniProt Q00535); conditions: Compound concentration 1000.0 nM
[33] = target: LIM domain kinase 1 (Homo sapiens) (UniProt P53667); conditions: Compound concentration 1000.0 nM
Chain of LIM domain kinase 1 (Homo sapiens) (P53667 whole entry, looked up, the tested form may be a part): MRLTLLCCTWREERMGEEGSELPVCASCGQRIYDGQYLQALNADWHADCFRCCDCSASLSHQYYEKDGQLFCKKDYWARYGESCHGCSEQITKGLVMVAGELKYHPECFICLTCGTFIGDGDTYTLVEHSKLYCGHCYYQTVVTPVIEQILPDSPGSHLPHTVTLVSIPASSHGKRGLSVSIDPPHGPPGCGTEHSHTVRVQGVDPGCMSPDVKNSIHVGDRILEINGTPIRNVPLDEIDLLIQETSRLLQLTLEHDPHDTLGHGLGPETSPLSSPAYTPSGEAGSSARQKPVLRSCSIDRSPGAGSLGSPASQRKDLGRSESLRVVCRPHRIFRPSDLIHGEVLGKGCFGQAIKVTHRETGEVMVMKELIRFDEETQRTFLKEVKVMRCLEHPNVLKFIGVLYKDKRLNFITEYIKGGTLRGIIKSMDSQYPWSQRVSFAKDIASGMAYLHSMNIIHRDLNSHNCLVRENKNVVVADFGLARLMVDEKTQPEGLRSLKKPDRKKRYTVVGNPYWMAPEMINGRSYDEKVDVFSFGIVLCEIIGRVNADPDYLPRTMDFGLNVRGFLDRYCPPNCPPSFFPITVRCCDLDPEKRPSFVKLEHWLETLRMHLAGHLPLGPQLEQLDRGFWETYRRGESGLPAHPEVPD

[34] = target: Glycogen synthase kinase-3 beta (Homo sapiens) (UniProt P49841); conditions: Compound concentration 1000.0 nM
Chain of Glycogen synthase kinase-3 beta (Homo sapiens) (P49841 whole entry, looked up): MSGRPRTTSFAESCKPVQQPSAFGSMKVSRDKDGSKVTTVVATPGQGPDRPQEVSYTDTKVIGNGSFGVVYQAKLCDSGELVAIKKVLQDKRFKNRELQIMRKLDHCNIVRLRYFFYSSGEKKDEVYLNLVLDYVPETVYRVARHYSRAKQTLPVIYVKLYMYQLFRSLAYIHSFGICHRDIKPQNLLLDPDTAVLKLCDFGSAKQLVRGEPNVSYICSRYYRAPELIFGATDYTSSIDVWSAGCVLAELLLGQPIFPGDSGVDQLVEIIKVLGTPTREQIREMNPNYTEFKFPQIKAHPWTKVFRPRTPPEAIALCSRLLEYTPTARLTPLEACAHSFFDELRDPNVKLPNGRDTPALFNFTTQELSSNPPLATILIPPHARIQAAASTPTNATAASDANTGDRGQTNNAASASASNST

[35] = target: Fibroblast growth factor receptor 4 (Homo sapiens) (UniProt P22455); conditions: Compound concentration 1000.0 nM
Chain of Fibroblast growth factor receptor 4 (Homo sapiens) (P22455 22-802 limits assumed): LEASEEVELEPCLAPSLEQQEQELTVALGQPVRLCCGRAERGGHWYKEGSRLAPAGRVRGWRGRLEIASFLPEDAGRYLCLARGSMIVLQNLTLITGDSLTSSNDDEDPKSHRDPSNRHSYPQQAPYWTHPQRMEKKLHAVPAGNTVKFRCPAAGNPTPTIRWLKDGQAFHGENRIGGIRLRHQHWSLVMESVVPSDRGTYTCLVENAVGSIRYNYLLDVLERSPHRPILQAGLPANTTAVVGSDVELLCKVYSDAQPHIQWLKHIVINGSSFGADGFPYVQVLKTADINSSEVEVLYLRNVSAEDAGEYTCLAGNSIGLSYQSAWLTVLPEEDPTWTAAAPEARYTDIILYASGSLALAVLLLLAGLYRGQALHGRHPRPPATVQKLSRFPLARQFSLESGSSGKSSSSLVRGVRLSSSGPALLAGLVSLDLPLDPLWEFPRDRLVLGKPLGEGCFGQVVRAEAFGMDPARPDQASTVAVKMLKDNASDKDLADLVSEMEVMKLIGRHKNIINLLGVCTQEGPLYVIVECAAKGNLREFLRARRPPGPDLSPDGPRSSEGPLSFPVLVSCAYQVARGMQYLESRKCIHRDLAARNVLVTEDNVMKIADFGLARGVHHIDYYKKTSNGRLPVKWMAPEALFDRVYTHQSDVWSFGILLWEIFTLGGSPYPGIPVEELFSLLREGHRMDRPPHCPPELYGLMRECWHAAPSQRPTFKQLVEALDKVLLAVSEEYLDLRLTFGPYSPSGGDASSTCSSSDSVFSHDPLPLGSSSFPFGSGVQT

[36] = target: 5'-AMP-activated protein kinase catalytic subunit alpha-2 (Homo sapiens) (UniProt P54646); conditions: Compound concentration 1000.0 nM
[37] = target: Serine/threonine-protein kinase 32A (Homo sapiens) (UniProt Q8WU08); conditions: Compound concentration 1000.0 nM
Chain of Serine/threonine-protein kinase 32A (Homo sapiens) (Q8WU08 whole entry): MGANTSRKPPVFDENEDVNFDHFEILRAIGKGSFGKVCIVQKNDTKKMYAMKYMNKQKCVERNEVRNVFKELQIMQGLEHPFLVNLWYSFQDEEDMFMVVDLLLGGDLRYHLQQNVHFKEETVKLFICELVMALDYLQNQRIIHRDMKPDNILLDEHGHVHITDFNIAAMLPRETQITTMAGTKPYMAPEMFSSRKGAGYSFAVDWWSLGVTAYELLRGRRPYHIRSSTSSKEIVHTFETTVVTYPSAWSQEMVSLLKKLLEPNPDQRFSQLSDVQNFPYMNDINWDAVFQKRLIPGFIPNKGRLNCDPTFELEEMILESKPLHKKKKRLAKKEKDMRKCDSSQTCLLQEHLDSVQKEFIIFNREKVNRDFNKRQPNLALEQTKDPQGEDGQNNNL

[38] = target: Mitogen-activated protein kinase kinase kinase 5 (Homo sapiens) (UniProt Q99683); conditions: Compound concentration 1000.0 nM
[39] = target: Serine/threonine-protein kinase 35 (Homo sapiens) (UniProt Q8TDR2); conditions: Compound concentration 1000.0 nM

Chain of Serine/threonine-protein kinase PAK 1 (Homo sapiens) (Q13153 whole entry): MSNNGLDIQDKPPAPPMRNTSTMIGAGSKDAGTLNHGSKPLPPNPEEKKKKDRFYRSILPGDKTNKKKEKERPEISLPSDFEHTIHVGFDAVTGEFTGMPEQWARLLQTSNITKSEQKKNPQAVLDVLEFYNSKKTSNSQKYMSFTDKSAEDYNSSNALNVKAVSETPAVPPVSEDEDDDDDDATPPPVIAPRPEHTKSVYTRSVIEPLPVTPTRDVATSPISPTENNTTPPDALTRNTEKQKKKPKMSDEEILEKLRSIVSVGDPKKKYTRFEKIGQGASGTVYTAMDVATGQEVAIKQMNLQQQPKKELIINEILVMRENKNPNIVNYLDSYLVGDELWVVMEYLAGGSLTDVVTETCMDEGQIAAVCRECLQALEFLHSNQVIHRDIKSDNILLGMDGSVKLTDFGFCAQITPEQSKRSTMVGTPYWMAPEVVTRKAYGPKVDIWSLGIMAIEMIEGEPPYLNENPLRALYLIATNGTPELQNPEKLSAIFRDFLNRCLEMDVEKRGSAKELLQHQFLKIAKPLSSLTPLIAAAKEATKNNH

SMILES | inhibition [1] [%] | residual activity [2] [%] | residual activity [3] [%] | residual activity [4] [%] | residual activity [5] [%] | residual activity [6] [%] | residual activity [7] [%] | inhibition [8] [%] | inhibition [9] [%] | inhibition [10] [%] | residual activity [11] [%] | residual activity [12] [%] | residual activity [13] [%] | residual activity [14] [%] | residual activity [15] [%] | residual activity [16] [%] | residual activity [17] [%] | residual activity [18] [%] | residual activity [19] [%] | residual activity [20] [%] | further results
C[C@H](c1cccc(C#N)c1)n1cc(Cl)cc(C(N)=O)c1=N [(R)-9s] | 93.3 | 100 | 100 | 100 | 82 | 89 | 97 | 6.03 | 53.6 | -7.87 | 76 | 75 | 83 | 100 | 100 | 100 | 100 | 100 | 100 | 100 | residual activity [21]: 100%; residual activity [22]: 100%; residual activity [23]: 99%; residual activity [24]: 100%; residual activity [25]: 90%; residual activity [26]: 100%; residual activity [27]: 95%; residual activity [28]: 100%; residual activity [29]: 100%; residual activity [30]: 100%; inhibition [31]: 4.64%; residual activity [32]: 100%; residual activity [33]: 88%; residual activity [34]: 95%; residual activity [35]: 87%; residual activity [36]: 94%; residual activity [37]: 100%; residual activity [38]: 85%; residual activity [39]: 88%
C[C@@H](c1cccc(C#N)c1)n1cc(Cl)cc(C(N)=O)c1=N [(S)-9s] | 60.5 | 100 | 92 | 100 | 85 | 88 | 100 | 7.75 | 20.7 | -3.33 | 82 | 93 | 79 | 100 | 98 | 96 | 86 | 95 | 99 | 94 | residual activity [21]: 100%; residual activity [22]: 100%; residual activity [23]: 91%; residual activity [24]: 100%; residual activity [25]: 89%; residual activity [26]: 79%; residual activity [27]: 100%; residual activity [28]: 94%; residual activity [29]: 96%; residual activity [30]: 100%; inhibition [31]: -1.01%; residual activity [32]: 92%; residual activity [33]: 100%; residual activity [34]: 88%; residual activity [35]: 100%; residual activity [36]: 96%; residual activity [37]: 100%; residual activity [38]: 100%; residual activity [39]: 100%
